Assays:
[1] = tested on: L. braziliensis promastigotes; test: Ultrastructural alterations by TEM, L. braziliensis; assay type: cell-based, Leishmania braziliensis; settings: 72 h at IC25 concentration
Protocol: (§1) Parasites were cultured at a density of 5 × 10^5 cells/mL with medium containing the tested compounds at IC25 concentrations. After 72 h at 28 °C, the cultures were processed using a technique previously described and analysed by TEM (LIBRA 120 PLUS, Zeiss, Barcelona, Spain).

[2] = tested on: Leishmania braziliensis promastigote forms; test: Promastigote test (extracellular forms), L. braziliensis; assay type: cell-based; settings: Leishmania braziliensis; 72 h; 100 µM to 1 µM; mean ± SD
Protocol: (§2) Promastigote forms of three different Leishmania spp., L. donovani (MHOM/PE/84/LC26), L. infantum (MCAN/ES/2001/UCM-10) and L. braziliensis (MHOM/BR/1975/M2904), were cultured in vitro in Medium Trypanosomes Liquid (MTL) supplemented with 10% inactivated foetal calf serum (FCS) in an air atmosphere at 28 °C, in Roux flasks (Corning, Manassas, VA, USA) with a surface area of 75 cm^2, according to [33].
(§3) The compounds and the reference drug Glu were dissolved in DMSO (Panreac, Barcelona, Spain) and tested from 100 µM to 1 µM with 0.1% (v/v) DMSO final concentration in plates. Therefore, controls were prepared including 0.1% (v/v) of this component, as previously described.
(§4) Promastigote forms were collected in the exponential growth phase and seeded at 1 × 10^5 parasites/mL in 24-well microplates (Nunc, Naperville, IL, USA), after adding each compound at concentrations from 100 µM to 1 µM and cultured in 500 μL/well volumes at 28 °C. After 72 h incubation, the leishmanicidal activity was assessed using a Neubauer haemocytometric chamber in comparison with the control cultures. […] Each drug concentration was tested in triplicate in four separate determinations.

[3] = tested on: L. infantum promastigotes; test: Ultrastructural alterations by TEM, L. infantum; assay type: cell-based, Leishmania infantum; settings: 72 h at IC25 concentration
Protocol: as §1

[4] = tested on: Leishmania donovani infection of J774.2 macrophages; test: Infectivity assay, L. donovani; assay type: cell-based; settings: IC25 concentration
Protocol: After the initial in vitro studies we were interested in finding out if the six most leishmanicidal compounds could also prevent the infection of host cells. For this reason, we conducted an assay in which the J774.2 macrophages were exposed to the metacyclic promastigotes and the compound at IC25 concentration at the same time. The propagation of the parasitic infection was determined by measuring the infection rate and the average number of amastigotes per macrophage cell present during the 10-day treatment period. In addition, the endocytic (short-time of infection) and infection (long-time of infection) indexes were calculated.
Adherent macrophages were grown, seeded and infected with metacyclic promastigotes as mentioned above. The compounds at IC25 concentrations (calculated using linear regression analysis from the Kc values of the concentrations employed) were added immediately after infection and incubation was performed for 12 h at 37 °C in humidified 95% air, 5% CO2 atmosphere. in humidified 95% air, 5% CO2 atmosphere at 37 °C Non-phagocytosed parasites and drugs were removed by washing, and then the infected cultures were grown for 10 days, adding fresh culture medium every 48 h, according to [35]. Amastigotes per macrophage count was determined in methanol-fixed and Giemsa-stained preparations as mentioned above every 48 h. The infection rate (defined as the percentage of infected cells), the average number of amastigotes per macrophage, and the endocytic and infection indexes (calculated by multiplying the infection rate by the average number of amastigotes per macrophage) were determined. Each drug concentration was tested in triplicate in four separate determinations.

[5] = tested on: Leishmania donovani promastigote forms; test: Promastigote test (extracellular forms), L. donovani; assay type: cell-based; settings: Leishmania donovani; 72 h; 100 µM to 1 µM; mean ± SD
Protocol: as §2, §3, §4

[6] = tested on: L. donovani promastigotes; test: Ultrastructural alterations by TEM, L. donovani; assay type: cell-based, Leishmania donovani; settings: 72 h at IC25 concentration
Protocol: as §1

[7] = tested on: Leishmania infantum amastigote forms; test: Amastigote test (intracellular forms in J774.2 macrophages), L. infantum; assay type: cell-based; settings: Leishmania infantum, 72 h, mean ± SD
Protocol: as §2, §3
(§5) J774.2 macrophages were grown and seeded at a density of 1 × 10^4 cells/well in 24-well microplates (Nunc) with rounded coverslips on the bottom and cultured for 48 h in humidified 95% air, 5% CO2 atmosphere at 37 °C in Minimal Essential Medium (MEM) with 2 mM glutamine and 20% (v/v) inactivated FCS. Adherent macrophages were infected with metacyclic promastigotes in the stationary growth phase of L. donovani, L. infantum and L. braziliensis at a multiplicity of infection (MOI) ratio of 1:10 and maintained for 24 h. Non-phagocytosed parasites were removed by washing, and after addition of the testing compounds at concentrations from 100 µM to 1 µM, cultured in 500 μL/well volumes. Control cultures were also included. After 72 h incubation, leishmanicidal activity was assessed based on the number of amastigotes in treated and untreated cultures in methanol-fixed and Giemsa-stained preparations by analyzing 500 host cells distributed in randomly chosen microscopic fields. The leishmanicidal effect was calculated as described to determine the leishmanicidal activity in the promastigote forms. Each drug concentration was tested in triplicate in four separate determinations.

[8] = tested on: Leishmania braziliensis amastigote forms; test: Amastigote test (intracellular forms in J774.2 macrophages), L. braziliensis; assay type: cell-based; settings: Leishmania braziliensis, 72 h, mean ± SD
Protocol: as §2, §3, §5

[9] = tested on: Leishmania donovani amastigote forms; test: Amastigote test (intracellular forms in J774.2 macrophages), L. donovani; assay type: cell-based; settings: Leishmania donovani, 72 h, mean ± SD
Protocol: as §2, §3, §5

[10] = tested on: J774.2 murine macrophages; test: Cytotoxicity test on macrophages by flow cytometry; assay type: cell-based, mouse; settings: Mus musculus, J774.2 macrophages, 72 h, read-out: Toxicity IC50 Macrophage
Protocol: as §3
The macrophage line J774.2 [European collection of cell cultures (ECACC) number 91051511] was derived in 1968 from a tumour in a female BALB/c mouse. Macrophages were grown in humidified 95% air, 5% CO2 atmosphere at 37 °C in Minimal Essential Medium (MEM) with 2 mM glutamine and 20% (v/v) inactivated FCS. The cytotoxicity test on macrophages was performed by Flow cytometry analysis according to a method previously described. Briefly, cells were seeded at a density of 5 × 10^4 cells/well in 24-well microplates (Nunc, Naperville, IL, USA). After 48 h incubation, the medium was removed, and fresh medium was added together with each test compound at concentrations from 100 µM to 1 µM and cultured in 500 μL/well volumes for 72 h. Thereafter, cells were recovered by centrifugation, and cell viability was determined by Flow cytometry (FACS Vantage flow cytometer, Becton Dickinson, San Jose, CA, USA) after incubating the cells with propidium iodide ([…]) and fluorescein diacetate (100 ng/mL). The percentage of viability was calculated in comparison with the control cultures. […] Each drug concentration was tested in triplicate in four separate determinations.

[11] = last day of the experiment (day 10)

`CN(C)c1ccnc(CN2CCC[C@H]2[C@@H]2CCCN2Cc2cc(N(C)C)ccn2)c1` [Compound 7] was tested, and the “ultrastructural alterations of L. braziliensis promastigotes (TEM)” value [1] was “damaged, swollen, and full of vacuoles”, the IC50 [2] was 11.7 ± 0.8 µM and the “ultrastructural alterations of L. infantum promastigotes (TEM)” value [3] was “most destructive compounds”. For the same molecule, the “day at which the decline in the infection rate appeared, L. donovani” value ([4]; 10-day infectivity assay) was 2 days, the “percentage of decrease in infection rate in comparison to the control, L. donovani” value [4, 11] was 88% and the “percentage of decrease in number of amastigotes per macrophage cell in comparison to the control, L. donovani” value [4, 11] was 74%. For the same molecule, the IC50 [5] was 8.1 ± 3.9 µM, the “ultrastructural alterations of L. donovani promastigotes (TEM)” value [6] was “cytoplasmic emptiness, none or a few ribosomes, swollen and disintegrated mitochondria and abundant lipid and non-lipid vacuoles” and the IC50 [7] was 9 ± 0.4 µM. The IC50 [8] was 8.5 ± 0.3 µM, the IC50 [9] was 1.1 ± 0.2 µM and the IC50 [10] was 172 ± 11.3 µM.

Reference: publication PMC6337631, “Effective Tetradentate Compound Complexes against Leishmania spp. that Act on Critical Enzymatic Pathways of These Parasites” (Molecules, 2018)
